According to patent US20250099531A1, “SYNERGISTIC COMPOSITIONS FOR ENHANCING TFEB-MEDIATED INTRACELLULAR CLEARANCE” (CELAGENEX RESEARCH (INDIA) PVT. LTD., priority 2022, published 2025):
Like-named read-outs stand apart in the source and are kept apart here.

Columns and labels:
[1] = system: Human Monocytes (THP-1) cell line; experiment: Estimation of autophagy using flow cytometer by CYTO-ID Autophagy Detection Kit; assay type: cell-based; conditions: THP-1 cells in autophagy, 24 h treatment, amounts as in the group description
Description: [table] […] To each well of the 6 well plates, 2 mL of the diluted cell suspension was added. After 24 h, 1 mL of different test concentrations and combinations of test substances were added. […] THP-1 cells were incubated with Rapamycin, and test substances in a 6-well plate. Followed by incubation, cells from different groups were harvested and measured using CYTO-ID autophagy detection kit by flow cytometer. All the reagents, standard solutions and samples will be thawed to room temperature before use. The assay was carried out as per manufacturer's instructions.

[2] = system: Human Monocytes (THP-1) cell line; conditions: 24 h
Description: The in vitro cytotoxicity was performed on Human Monocytes (THP-1) cell line to find the non-toxic concentrations of the test substances by WST-1 assay and evaluate their autophagic activity in Human Monocytes by CYTO-ID® Autophagy Detection Kit
About 10 mg of the test substances, N-(3-Aminopropyl)-1,4-butanediamine and N-α-Acetyl-N-β-alanyl-L-histidine were dissolved separately with 1 mL RPMI-1640 supplemented with 2% inactivated FBS to obtain a stock solution of 10 mg/mL concentration. Diluted the stock to desired concentrations for carrying out further studies.
THP-1 (Human Monocyte cells) was procured from NCCS, India. Stock cells were cultured in RPMI-1640 supplemented with 10% inactivated Fetal Bovine Serum (FBS), penicillin (100 IU/mL), streptomycin (100 μg/mL) and amphotericin B (5 μg/mL) in an humidified atmosphere of 5% CO2 at 37° C. until confluent. The stock cultures were grown in 25 cm^2 culture flasks and all experiments were carried out in 96 microtitre plates and 6 well plate (Tarsons India Pvt. Ltd., Kolkata, India).
The cell count was adjusted to 100,000 cells/mL using RPMI-1640 containing 10% FBS. To each well of the 96 well micro titre plate, 0.1 mL of the diluted cell suspension was added. After 24 h, 0.1 mL of different test concentrations were added in the micro titre plate. The untreated cells were maintained as cell control for comparison. The plate was then incubated at 37° C. for 24 h in 5% CO2 atmosphere, and microscopic examination was carried out and observations were noted. After 24 h, 20 μL of WST-1 added to each well and incubated for 3 h at 37° C. in 5% CO2 atmosphere. The plates were gently shaken and the absorbance was measured using a micro plate reader at a wavelength of 490 nm.

Row | SMILES | Percentage cells expressed CYTO-ID [1] [%] | Percentage cytotoxicity after treatment ([2]; 0.01 mg/mL) [%] | Percentage cytotoxicity after treatment ([2]; 0.03 mg/mL) [%] | Percentage cytotoxicity after treatment ([2]; 0.06 mg/mL) [%] | Percentage cytotoxicity after treatment ([2]; 0.07 mg/mL) [%] | Percentage cytotoxicity after treatment ([2]; 0.12 mg/mL) [%] | Percentage cytotoxicity after treatment ([2]; 0.25 mg/mL) [%] | Percentage cytotoxicity after treatment ([2]; 0.5 mg/mL) [%] | Percentage cytotoxicity after treatment ([2]; 1 mg/mL) [%] | Percentage cytotoxicity after treatment ([2]; 5 mg/mL) [%]
1 | CO[C@H]1C[C@@H]2CC[C@@H](C)[C@@](O)(O2)C(=O)C(=O)N2CCCC[C@H]2C(=O)O[C@H]([C@H](C)C[C@@H]2CC[C@@H](O)[C@H](OC)C2)CC(=O)[C@H](C)/C=C(\C)[C@@H](O)[C@@H](OC)C(=O)[C@H](C)C[C@H](C)/C=C/C=C/C=C/1C [Rapamycin, reference compound] | 18.85 | – | – | – | – | – | – | – | – | –
2 | NCCCCNCCCN [N-(3-Aminopropyl)-1,4-butanediamine] | 7.24 | 0.74 ± 0.25 | 0.68 ± 2.30 | 0.94 ± 0.18 | 0.86 ± 2.08 | 1.20 ± 0.87 | 4.10 ± 1.63 | 11.79 ± 3.36 | 22.88 ± 2.80 | 39.37 ± 1.37
3 | CC(=O)NCCC(=O)N[C@@H](Cc1c[nH]cn1)C(=O)O [N-α-Acetyl-N-β-alanyl-L-histidine] | 4.03 | – | – | – | – | – | – | – | – | –
